Results as given in ChEMBL document CHEMBL1143152, “Calcitonin gene-related peptide (CGRP) receptor antagonists: investigations of a pyridinone template” (Bioorg Med Chem Lett, 2008).

Experiments:
[1] = target: T1, Calcitonin gene-related peptide type 1 receptor (Homo sapiens, UniProt O60894+Q16602); test: Displacement of [125I]CGRP from human recombinant CL receptor /RAMP1
[2] = target: T1, Calcitonin gene-related peptide type 1 receptor; test: Antagonist activity at human recombinant CL receptor /RAMP1 assessed as inhibition of cAMP accumulation by cell based assay; format: functional
[3] = Cmax in dog at 0.5 mg/kg, iv and 1.0 mg/kg, po; format: ADME, organism-based, Canis lupus familiaris; conditions: in vivo
[4] = Cmax in rat at 2.0 mg/kg, iv and 10 mg/kg, po; format: ADME, organism-based; conditions: in vivo
[5] = Half life in rat at 2.0 mg/kg, iv and 10 mg/kg, po; format: ADME, organism-based; conditions: in vivo
[6] = Clearance in rat at 2.0 mg/kg, iv and 10 mg/kg, po; format: ADME, organism-based; conditions: in vivo
[7] = Clearance in dog at 0.5 mg/kg, iv and 1.0 mg/kg, po; format: ADME, organism-based, Canis lupus familiaris; conditions: in vivo
[8] = Bioavailability in dog at 1.0 mg/kg, po; format: ADME, organism-based, Canis lupus familiaris; conditions: in vivo
[9] = Bioavailability in rat at 10 mg/kg, po; format: ADME, organism-based; conditions: in vivo
[10] = Half life in dog at 0.5 mg/kg, iv and 1.0 mg/kg, po; format: ADME, organism-based, Canis lupus familiaris; conditions: in vivo
[11] = target: T1, Calcitonin gene-related peptide type 1 receptor; test: Antagonist activity at human recombinant CL receptor /RAMP1 assessed as inhibition of cAMP accumulation in presence of 50% human serum by cell based assay; format: functional

T1 sequence (Q16602 whole entry, one chain of several): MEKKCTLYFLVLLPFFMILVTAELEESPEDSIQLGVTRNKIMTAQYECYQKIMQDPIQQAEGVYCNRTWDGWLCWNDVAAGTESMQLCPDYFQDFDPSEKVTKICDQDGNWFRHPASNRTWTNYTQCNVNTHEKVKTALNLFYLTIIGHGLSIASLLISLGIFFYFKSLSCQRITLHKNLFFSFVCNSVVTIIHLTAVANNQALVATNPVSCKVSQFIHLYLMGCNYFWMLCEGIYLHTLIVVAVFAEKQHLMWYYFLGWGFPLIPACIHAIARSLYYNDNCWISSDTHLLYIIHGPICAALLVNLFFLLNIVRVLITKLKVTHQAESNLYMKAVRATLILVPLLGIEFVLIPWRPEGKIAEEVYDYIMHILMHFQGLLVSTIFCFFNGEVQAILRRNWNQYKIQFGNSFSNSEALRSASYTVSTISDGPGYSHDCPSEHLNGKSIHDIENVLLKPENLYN

Cn1cc(-c2ccc(C(=O)O)cc2)cc(NC(=O)N2CCC(n3c(=O)[nH]c4ncccc43)CC2)c1=O showed a Ki [1] of 9000 nM.

Cn1cc(-c2ccccc2F)cc(NC(=O)N2CCC(n3c(=O)[nH]c4ncccc43)CC2)c1=O showed a Ki [1] of 213 nM and an IC50 [2] of 477 nM.

With O=C(Nc1cc(-c2ccccc2)cn(CC(F)(F)F)c1=O)N1CCC(n2c(=O)[nH]c3ncccc32)CC1 the Cmax [3] was 10.3 µM, the Cmax [4] was 5.3 µM and the Ki [1] was 95 nM. It also gave a half-life [5] of 2.5 h, a clearance [6] of 2.3 mL/min/kg and a clearance [7] of 0.2 mL/min/kg. The IC50 [2] was 209 nM, the bioavailability [8] was 58% and the bioavailability [9] was 31%. The half-life [10] was 3.7 h.

Molecule COc1ccc(-c2cc(NC(=O)N3CCC(n4c(=O)[nH]c5ncccc54)CC3)c(=O)n(C)c2)cc1 has a Ki [1] of 495 nM and an IC50 [2] of 1530 nM.

For Cn1cc(-c2ncccn2)cc(NC(=O)N2CCC(n3c(=O)[nH]c4ncccc43)CC2)c1=O, the Ki [1] was 1900 nM.

Molecule O=C(Nc1cc(-c2ccccc2)cn(CC2CC2)c1=O)N1CCC(n2cc(-c3ccccc3)[nH]c2=O)CC1 has a Ki [1] of 80 nM and an IC50 [2] of 360 nM.

Work on COCCn1cc(-c2ccsc2)cc(NC(=O)N2CCC(n3c(=O)[nH]c4ncccc43)CC2)c1=O yielded a Cmax [4] of 0.08 µM, a Ki [1] of 390 nM and a half-life [5] of 2.8 h. For the same molecule, the clearance [6] was 23.5 mL/min/kg, the IC50 [2] was 540 nM and the bioavailability [9] was 1%.

Work on COCCn1cc(-c2cccnc2)cc(NC(=O)N2CCC(n3c(=O)[nH]c4ncccc43)CC2)c1=O yielded a Ki [1] of 695 nM and an IC50 [2] of 1190 nM.

Work on O=C(Nc1cc(-c2cccc(F)c2)cn(CC(F)(F)F)c1=O)N1CCC(n2c(=O)[nH]c3ncccc32)CC1 yielded a Ki [1] of 42 nM and an IC50 [2] of 119 nM.

Cn1cc(-c2cccc(F)c2F)cc(NC(=O)N2CCC(n3c(=O)[nH]c4ncccc43)CC2)c1=O showed a Ki [1] of 166 nM and an IC50 [2] of 567 nM.

Cn1cc(-c2ccc(O)cc2)cc(NC(=O)N2CCC(n3c(=O)[nH]c4ncccc43)CC2)c1=O gave a Cmax [3] of 0.6 µM, a Cmax [4] of 0.1 µM and a Ki [1] of 43 nM. For the same molecule, the half-life [5] was 1.1 h, the clearance [6] was 16.1 mL/min/kg and the clearance [7] was 0.6 mL/min/kg. The IC50 [2] was 88 nM, the bioavailability [8] was 3% and the bioavailability [9] was 2%. The half-life [10] was 2.9 h.

With Cn1cc(C2C=NC=N2)cc(NC(=O)N2CCC(n3c(=O)[nH]c4ncccc43)CC2)c1=O (stereo not given) the Ki [1] was 2050 nM.

With O=C(Nc1cc(-c2ccc(O)cc2)cn(CC(F)(F)F)c1=O)N1CCC(n2c(=O)[nH]c3ncccc32)CC1 the Ki [1] was 96 nM, the IC50 [2] was 282 nM and the IC50 [11] was 971 nM.

With O=C(Nc1ccc(-c2ccccc2)n(CC2CC2)c1=O)N1CCC(n2cc(-c3ccccc3)[nH]c2=O)CC1 the Ki [1] was 3400 nM.

With Cn1cc(-c2ccsc2)cc(NC(=O)N2CCC(n3c(=O)[nH]c4ncccc43)CC2)c1=O the Cmax [4] was 7.4 µM, the Ki [1] was 75 nM and the half-life [5] was 1 h. For the same molecule, the clearance [6] was 8.9 mL/min/kg, the IC50 [2] was 330 nM and the bioavailability [9] was 47%.

With O=C(Nc1cc(-c2ccccc2F)cn(CC(F)(F)F)c1=O)N1CCC(n2c(=O)[nH]c3ncccc32)CC1 the Ki [1] was 54 nM and the IC50 [2] was 186 nM.

With Cn1cc(-c2cccc(O)c2)cc(NC(=O)N2CCC(n3c(=O)[nH]c4ncccc43)CC2)c1=O the Ki [1] was 42 nM, the IC50 [2] was 142 nM and the IC50 [11] was 715 nM.

Cn1cc(-c2ccc(S(C)(=O)=O)cc2)cc(NC(=O)N2CCC(n3c(=O)[nH]c4ncccc43)CC2)c1=O showed a Ki [1] of 1750 nM.

Work on COCCn1cc(-c2ccc(O)cc2)cc(NC(=O)N2CCC(n3c(=O)[nH]c4ncccc43)CC2)c1=O yielded a Ki [1] of 74 nM, an IC50 [2] of 170 nM and an IC50 [11] of 280 nM.

Work on O=C(Nc1cc(-c2ccsc2)cn(CC(F)(F)F)c1=O)N1CCC(n2c(=O)[nH]c3ncccc32)CC1 yielded a Cmax [4] of 5.1 µM, a Ki [1] of 105 nM and a half-life [5] of 0.9 h. The clearance [6] was 9.6 mL/min/kg, the IC50 [2] was 345 nM and the bioavailability [9] was 44%.

With Cn1cc(-c2cccnc2)cc(NC(=O)N2CCC(n3c(=O)[nH]c4ncccc43)CC2)c1=O the Ki [1] was 270 nM and the IC50 [2] was 1070 nM.

O=C(Nc1cc(-c2ccccc2)cn(CC2CC2)c1=O)N1CCC(n2c(=O)[nH]c3ncccc32)CC1 showed a Ki [1] of 170 nM and an IC50 [2] of 302 nM.

COCCn1cc(-c2cccc(F)c2F)cc(NC(=O)N2CCC(n3c(=O)[nH]c4ncccc43)CC2)c1=O showed a Ki [1] of 41 nM, an IC50 [2] of 164 nM and an IC50 [11] of 1000 nM.

Cn1cc(-c2ccccc2O)cc(NC(=O)N2CCC(n3c(=O)[nH]c4ncccc43)CC2)c1=O gave a Ki [1] of 220 nM and an IC50 [2] of 827 nM.

COCCn1cc(-c2ccn[nH]2)cc(NC(=O)N2CCC(n3c(=O)[nH]c4ncccc43)CC2)c1=O showed a Ki [1] of 140 nM, an IC50 [2] of 307 nM and an IC50 [11] of 394 nM.

With Cn1cc(-c2ccccc2)cc(NC(=O)N2CCC(n3c(=O)[nH]c4ncccc43)CC2)c1=O the Cmax [4] was 20.3 µM, the Ki [1] was 498 nM and the half-life [5] was 3 h. For the same molecule, the clearance [6] was 1.3 mL/min/kg, the IC50 [2] was 495 nM and the IC50 [11] was 10900 nM. For the same molecule, the bioavailability [9] was 40%.

O=C(Nc1cc(-c2cccnc2)cn(CC(F)(F)F)c1=O)N1CCC(n2c(=O)[nH]c3ncccc32)CC1 gave a Cmax [3] of 7.4 µM, a Ki [1] of 635 nM and a clearance [7] of 0.3 mL/min/kg. It also gave an IC50 [2] of 651 nM, a bioavailability [8] of 56% and a half-life [10] of 5.4 h.

O=C(Nc1cc(-c2ccn[nH]2)cn(CC(F)(F)F)c1=O)N1CCC(n2c(=O)[nH]c3ncccc32)CC1 gave a Ki [1] of 205 nM, an IC50 [2] of 550 nM and an IC50 [11] of 1420 nM.

COCCn1cc(-c2ccccc2)cc(NC(=O)N2CCC(n3c(=O)[nH]c4ncccc43)CC2)c1=O gave a Cmax [4] of 1.3 µM, a Ki [1] of 228 nM and a half-life [5] of 0.5 h. It also gave a clearance [6] of 25.3 mL/min/kg, an IC50 [2] of 665 nM and a bioavailability [9] of 37%.

Work on Cn1cc(C2C=CN=N2)cc(NC(=O)N2CCC(n3c(=O)[nH]c4ncccc43)CC2)c1=O (stereo not given) yielded a Cmax [3] of 0.3 µM, a Ki [1] of 71 nM and a clearance [7] of 2.8 mL/min/kg. For the same molecule, the IC50 [2] was 184 nM, the IC50 [11] was 872 nM and the bioavailability [8] was 6%. The half-life [10] was 1.2 h.

Work on O=C(Nc1cc(-c2cccc(F)c2F)cn(CC(F)(F)F)c1=O)N1CCC(n2c(=O)[nH]c3ncccc32)CC1 yielded a Cmax [3] of 9.4 µM, a Cmax [4] of 9.4 µM and a Ki [1] of 17 nM. The half-life [5] was 6.3 h, the clearance [6] was 0.8 mL/min/kg and the clearance [7] was 0.2 mL/min/kg. For the same molecule, the IC50 [2] was 18 nM, the IC50 [11] was 811 nM and the bioavailability [8] was 65%. For the same molecule, the bioavailability [9] was 34% and the half-life [10] was 3.3 h.

Molecule Cn1cc(-c2cccc(F)c2)cc(NC(=O)N2CCC(n3c(=O)[nH]c4ncccc43)CC2)c1=O has a Ki [1] of 155 nM and an IC50 [2] of 337 nM.
